Counter-ions that a name gives are not always drawn. Like-named read-outs stand apart in the source and are kept apart here.
Assays:
[1] = test system: HCV replicon in Huh7 cells; assay: HCV replicon cell-based assay (replicon FRET assay); design: species or system HCV strain 1B; conditions: EC50 ranges
Source text: An HCV replicon whole cell system was established as described by Lohmann V, Korner F, Koch J, Herian U, Theilmann L, Bartenschlager R., Science 285 (5424):110-3 (1999). This system enabled us to evaluate the effects of our HCV Protease compounds on HCV RNA replication. Briefly, using the HCV strain 1B sequence described in the Lohmann paper (Assession number:AJ238799), an HCV cDNA was generated encoding the 5′ internal ribosome entry site (IRES), the neomycin resistance gene, the EMCV (encephalomyocarditis viurs)-IRES and the HCV nonstructural proteins, NS3-NS5B, and 3′ non-translated region (NTR). In vitro transcripts of the cDNA were transfected into the human hepatoma cell line, Huh7. […] Resulting cell lines were characterized for positive and negative strand RNA production and protein production over time.
Huh7 cells, constitutively expressing the HCV replicon, were grown in Dulbecco's Modified Eagle Media (DMEM) containing 10% Fetal calf serum (FCS) and 1 mg/ml G418 (Gibco-BRL). Cells were seeded the night before (1.5×10^4 cells/well) in 96-well tissue-culture sterile plates. Compound and no compound controls were prepared in DMEM containing 4% FCS, 1:100 Penicillin/Streptomysin, 1:100 L-glutamine and 5% DMSO in the dilution plate (0.5% DMSO final concentration in the assay). Compound/DMSO mixes were added to the cells and incubated for 4 days at 37° C. After 4 days, plates were rinsed thoroughly with Phosphate-Buffered Saline (PBS) (3 times 150 μl). The cells were lysed with 25 μl of a lysis assay reagent containing the FRET peptide (RET S1, as described for the in vitro enzyme assay). The lysis assay reagent was made from 5× cell Luciferase cell culture lysis reagent(Promega #E153A) diluted to 1× with distilled water, NaCl added to 150 mM final, the FRET peptide diluted to 10 μM final from a 2 mM stock in 100% DMSO. The plate was then placed into the Cytofluor 4000 instrument which had been set to 340 nm excitation/490 emission, automatic mode for 21 cycles and the plate read in a kinetic mode. EC50 determinations were carried out as described for the IC50 determinations.

[2] = target: T1, HCV NS3/4A protease complex, BMS strain (genotype 1a) (Hepatitis C virus genotype 1a, UniProt P27958, C1454S/C1711G); assay: Recombinant HCV NS3/4A protease complex FRET peptide assay (BMS strain); assay type: biochemical; conditions: IC50 ranges
T1 construct: recombinant HCV NS3/4A protease complex (amino'acids 1027 to 1711); inferred from the pET21b vector and Ni-NTA purification; made in house; host or cells: Escherichia coli BL21 (DE3), pET21b
T1 sequence (P27958 1027-1711 C1454S/C1711G, one chain of several): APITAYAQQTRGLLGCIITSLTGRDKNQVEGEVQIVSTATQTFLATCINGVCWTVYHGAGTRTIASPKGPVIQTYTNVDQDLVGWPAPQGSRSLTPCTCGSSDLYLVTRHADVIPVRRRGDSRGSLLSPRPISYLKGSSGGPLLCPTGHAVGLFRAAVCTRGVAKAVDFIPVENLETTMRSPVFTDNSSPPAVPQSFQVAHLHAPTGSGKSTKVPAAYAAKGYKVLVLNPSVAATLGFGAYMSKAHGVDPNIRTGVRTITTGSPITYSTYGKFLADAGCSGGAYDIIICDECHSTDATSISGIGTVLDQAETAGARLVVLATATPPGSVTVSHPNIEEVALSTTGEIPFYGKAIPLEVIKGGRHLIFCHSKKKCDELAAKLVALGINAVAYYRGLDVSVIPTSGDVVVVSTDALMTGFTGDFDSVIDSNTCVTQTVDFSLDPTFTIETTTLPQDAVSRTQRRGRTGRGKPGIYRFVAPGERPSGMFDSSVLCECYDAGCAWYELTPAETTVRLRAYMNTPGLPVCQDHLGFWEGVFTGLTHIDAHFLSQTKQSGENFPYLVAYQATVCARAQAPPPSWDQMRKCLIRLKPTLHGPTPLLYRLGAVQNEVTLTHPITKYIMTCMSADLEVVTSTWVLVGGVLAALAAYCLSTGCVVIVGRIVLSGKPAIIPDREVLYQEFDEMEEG
Source text: The purpose of this in vitro assay was to measure the inhibition of HCV NS3 protease complexes, derived from the BMS, H77C or J4L6S strains, as described below, by compounds of the present invention. This assay provides an indication of how effective compounds of the present invention would be in inhibiting HCV proteolytic activity.
Serum from an HCV-infected patient was obtained from Dr. T. Wright, San Francisco Hospital. An engineered full-length cDNA (compliment deoxyribonucleic acid) template of the HCV genome (BMS strain) was constructed from DNA fragments obtained by reverse transcription-PCR (RT-PCR) of serum RNA (ribonucleic acid) and using primers selected on the basis of homology between other genotype 1a strains. From the determination of the entire genome sequence, a genotype 1a was assigned to the HCV isolate according to the classification of Simmonds et al. (See P Simmonds, K A Rose, S Graham, S W Chan, F McOmish, B C Dow, E A Follett, P L Yap and H Marsden, J. Clin. Microbiol., 31 (6), 1493-1503 (1993)). […] The infectious clones, H77C (1a genotype) and J4L6S (1b genotype) were obtained from R. Purcell (N1H) and the sequences are published in Genbank (AAB67036, see Yanagi, M., Purcell, R. H., Emerson, S. U. and Bukh, J. Proc. Natl. Acad. Sci. U.S.A. 94 (16), 8738-8743 (1997); AF054247, see Yanagi, M., St Claire, M., Shapiro, M., Emerson, S. U., Purcell, R. H. and Bukh, J, Virology 244 (1), 161-172. (1998)).
The BMS, H77C and J4L6S strains were used for production of recombinant NS3/4A protease complexes. DNA encoding the recombinant HCV NS3/4A protease complex (amino'acids 1027 to 1711) for these strains were manipulated as described by P. Gallinari et al. (see Gallinari P, Paolini C, Brennan D, Nardi C, Steinkuhler C, De Francesco R. Biochemistry. 38 (17):5620-32, (1999)). Briefly, a three-lysine solubilizing tail was added at the 3′-end of the NS4A coding region. The cysteine in the P1 position of the NS4A-NS4B cleavage site (amino acid 1711) was changed to a glycine to avoid the proteolytic cleavage of the lysine tag. Furthermore, a cysteine to serine mutation was introduced by PCR at amino acid position 1454 to prevent the autolytic cleavage in the NS3 helicase domain. The variant DNA fragment was cloned in the pET21b bacterial expression vector (Novagen)and the NS3/4A complex was expressed in Escherichia. coli strain BL21 (DE3) (Invitrogen) following the protocol described by P. Gallinari et al. (see Gallinari P, Brennan D, Nardi C, Brunetti M, Tomei L, Steinkuhler C, De Francesco R., J. Virol. 72 (8):6758-69 (1998)) with modifications. Briefly, NS3/4A expression was induced with 0.5 mM Isopropyl β-D-1-thiogalactopyranoside (IPTG) for 22 hr at 20° C. A typical fermentation (10L) yielded approximately 80 g of wet cell paste. The cells were resuspended in lysis buffer (10 mL/g) consisting of 25 mM N-(2-Hydroxyethyl)Piperazine-N′-(2-Ethane Sulfonic acid) (HEPES), pH 7.5, 20% glycerol, 500 mM Sodium Chloride (NaCl), 0.5% Triton-X100, 1 ug/ml lysozyme, 5 mM Magnesium Chloride (MgCl2), 1 ug/ml Dnasel, 5 mM β-Mercaptoethanol (OME), Protease inhibitor-Ethylenediamine Tetraacetic acid (EDTA) free (Roche), homogenized and incubated for 20 mins at 4° C. The homogenate was sonicated and clarified by ultra-centrifugation at 235000 g for 1 hr at 4° C. Imidazole was added to the supernatant to a final concentration of 15 mM and the pH adjusted to 8.0. The crude protein extract was loaded on a Nickel-Nitrilotriacetic acid (Ni-NTA) column pre-equilibrated with buffer B (25 mM HEPES, pH 8.0, 20% glycerol, 500 mM NaCl, 0.5% Triton-X100, 15 mM imidazole, 5 mM βME). The sample was loaded at a flow rate of 1 mL/min. The column was washed with 15 column volumes of buffer C (same as buffer B except with 0.2% Triton-X100). The protein was eluted with 5 column volumes of buffer D (same as buffer C except with 200 mM Imidazole). […]

[3] = Hepatitis C virus, Huh-7, HCV replicon cell assay
[4] = IC50, HCV NS3/4A protease FRET assay in vitro

SMILES | EC50 ([1]; HCV replicon cell assay, read-out: EC50) | IC50 ([2]; HCV NS3/4A protease FRET assay in vitro, read-out: IC50) | EC50 [1, 3] | IC50 [2, 4]
COc1ccc2c(O[C@@H]3C[C@H]4C(=O)N[C@]5(C(=O)NS(=O)(=O)C6CC6)C[C@H]5/C=C\CCCCC[C@H](NC(=O)OC(C)(C)C)C(=O)N4C3)cc(-c3ccccc3)nc2c1 (relative stereo) [Compound 11, (1S,4R,6S,13S,18R)-7-cis-[4-Cyclopropanesulfonyl-aminocarbonyl-18-(7-methoxy-2-phenylquinolin-4-yloxy)-2,15-dioxo-3,16-diazatricyclo-[14.3.0.0^4,6]nona-dec-7-en-14-yl]carbamic acid tert-butyl ester] | < 50 nM | < 50 nM |  | 
COc1ccc2c(O[C@@H]3C[C@H]4C(=O)N[C@]5(C(=O)NS(=O)(=O)C6CC6)C[C@H]5/C=C/CC[C@H](NC(=O)OC(C)(C)C)C(=O)N4C3)cc(-c3ccccc3)nc2c1 [Compound 1, (1S,4R,6S,11S,15R)-7-trans-[4-Cyclopropanesulfonyl-amino-carbonyl-15-(7-methoxy-2-phenylquinolin-4-yloxy)-2,12-dioxo-3,13-diazatricyclo[11.3.0.0^4,6]hexa-dec-7-en-11-yl]carbamic acid tert-butyl ester] |  |  | < 50000 nM | < 5000 nM
COc1ccc2c(O[C@@H]3C[C@H]4C(=O)N[C@]5(C(=O)NS(=O)(=O)C6CC6)CC5/C=C/CC[C@H](N)C(=O)N4C3)cc(-c3ccccc3)nc2c1 (stereo partly drawn) [Compound 2, (1S 4R,6S,11S,15R)-7-trans-Cyclopropanesulfonic acid [11-amino-15-(7-methoxy-2-phenylquinolin-4-yloxy)-2,12-dioxo-3,13-diazatricyclo-[11.3.0.0^4,6]hexadec-7-ene-4-carbonyl]amide dihydrochloride] |  |  |  | < 5000 nM
COc1ccc2c(O[C@@H]3C[C@H]4C(=O)N[C@]5(C(=O)NS(=O)(=O)C6CC6)CC5/C=C/CCC[C@H](NC(=O)OC(C)(C)C)C(=O)N4C3)cc(-c3ccccc3)nc2c1 (stereo partly drawn) [Compound 3, (1S,4R,6S,12S,16R)-7-trans-[4-Cyclopropanesulfonyl-aminocarbonyl-16-(7-methoxy-2-phenylquinolin-4-yloxy)-2,13-dioxo-3,14-diazatricyclo[12.3.0.0^4,6]heptadec-7-en-12-yl]carbamic acid tert-butyl ester] |  |  | < 50000 nM | < 5000 nM
COc1ccc2c(O[C@@H]3C[C@H]4C(=O)N[C@]5(C(=O)NS(=O)(=O)C6CC6)CC5/C=C/CCC[C@H](N)C(=O)N4C3)cc(-c3ccccc3)nc2c1 (stereo partly drawn) [Compound 4, (1S,4R,6S,12S,16R)-7-trans-Cyclopropanesulfonic acid [12-amino-16-(7-methoxy-2-phenylquinolin-4-yloxy)-2,13-dioxo-3,14-diazatricyclo [12.3.0.0^4,6]heptadec-7-ene-4-carbonyl]amide dihydrochloride] |  |  |  | < 50000 nM
COc1ccc2c(O[C@@H]3C[C@H]4C(=O)N[C@]5(C(=O)NS(=O)(=O)C6CC6)CC5/C=C/CCCC[C@H](NC(=O)OC(C)(C)C)C(=O)N4C3)cc(-c3ccccc3)nc2c1 (stereo partly drawn) [Compound 5, (1S,4R,6S,13S,17R)-7-trans-[4-Cyclopropanesul-fonylamino-carbonyl-17-(7-methoxy-2-phenylquinolin-4-yloxy)-2,14-dioxo-3,15-diazatricyclo[13.3.0.0^4,6]octa-dec-7-en-13-yl]carbamic acid tert-butyl ester] |  |  | < 50 nM | < 50 nM
COc1ccc2c(O[C@@H]3C[C@H]4C(=O)N[C@]5(C(=O)NS(=O)(=O)C6CC6)CC5/C=C\CCCC[C@H](NC(=O)OC(C)(C)C)C(=O)N4C3)cc(-c3ccccc3)nc2c1 (stereo partly drawn) [Compound 7, (1S,4R,65,13S,17R)-7-cis-[4-Cyclopropanesulfonylamino-carbonyl-17-(7-methoxy-2-phenylquinolin-4-yloxy)-2,14-dioxo-3,15-diazatricyclo[13.3.0.0^4,6]octadec-7-en-13-yl]carbamic acid tert-butyl ester] |  |  | < 50 nM | < 50 nM
COc1ccc2c(O[C@@H]3C[C@H]4C(=O)N[C@]5(C(=O)NS(=O)(=O)C6CC6)CC5/C=C\CCCC[C@H](N)C(=O)N4C3)cc(-c3ccccc3)nc2c1 (stereo partly drawn) [Compound 8, (1S,4R,6S,13S,17R)-7-cis-Cyclopropanesulfonic acid [13-amino-17-(7-methoxy-2-phenylquinolin-4-yloxy)-2,14-dioxo-3,15-diazatricyclo[13.3.0.0^4,6]octadec-7-ene-4-carbonyl]amide dihydrochloride] |  |  | < 500 nM | < 50 nM
COc1ccc2c(O[C@@H]3C[C@H]4C(=O)N[C@]5(C(=O)NS(=O)(=O)C6CC6)C[C@H]5/C=C\CCCCC[C@H](NC(=O)OC(C)(C)C)C(=O)N4C3)cc(-c3ccccc3)nc2c1 [Compound 9, (1S,4R,6S,14S,18R)-7-cis-[4-Cyclopropanesulfonylamino-carbonyl-18-(7-methoxy-2-phenylquinolin-4-yloxy)-2,15-dioxo-3,16-diazatricyclo[14.3.0.0^4,6]nonadec-7-en-14-yl]carbamic acid tert-butyl ester] |  |  | < 50 nM | < 50 nM
COc1ccc2c(O[C@@H]3C[C@H]4C(=O)N[C@]5(C(=O)NS(=O)(=O)C6CC6)CC5/C=C\CCCCC[C@H](N)C(=O)N4C3)cc(-c3ccccc3)nc2c1 (stereo partly drawn) [Compound 10, (1S,4R,6S,14S,18R)-7-cis-Cyclopropane-sulfonic acid [14-amino-18-(7-methoxy-2-phenylquinol-in-4-yloxy)-2,15-dioxo-3,16-diazatricyclo[14.3.0.0^4,6]-nonadec-7-ene-4-carbonyl]amide dihydrochloride] |  |  | < 50 nM | < 50 nM
